Experiment [1] relates to human pneumococcal reference serum 007sp (pooled sera of humans immunized with Pneumovax). The class given is binding.
The subject of experiment [2] is mAb 1H8. As to the kind of experiment: Surface plasmon resonance with captured mAb 1H8. The format is binding, mouse. The settings on record: saccharide 18 at 20 μM, polysaccharides at 10 μg/mL in PBS. The protocol:
Surface Plasmon Resonance was performed on a Biacore T100 instrument (GE Healthcare). Analysis was performed using the Mouse Antibody Capture Kit and Amine Coupling Kit (GE Healthcare) for immobilization. About 10000 response units (RU) of capture antibody were immobilized. A commercial mouse IgG (cat. no. 026502, Invitrogen, Carlsbad, US) was immobilized as a dummy in a reference cell (about 10000 RU). About 800 RU of mAb 1H8 were captured prior to every run using a mAb concentration of 50 μg/mL. Runs were performed using PBS as a running buffer and a flow rate of 30 μL/min with 60 s association and 120 s dissociation periods, respectively. Polysaccharides were used at a concentration of 10 μg/mL and saccharide 18 at 20 μM in PBS.
(In SPR one partner is held on a chip, and binding of the other changes the refractive index at the surface.)

In experiment [3] the test system is mAb 1H8. The class given is binding, mouse.
Another experiment relates to mAb 1F1. The class given is binding, mouse.

In the case of `NCCO[C@H]1OC(CO)[C@H](O[C@H]2OC(CO)[C@@H](O[C@@H]3OC(CO)[C@@H](O[C@@H]4OC(C(=O)O)[C@@H](O)[C@H](O)C4O)[C@H](O)C3O)[C@H](O)C2O)[C@H](O)C1O` (stereo partly drawn) [saccharide 18, β-D-Glucopyranosyluronic acid-(1→4)β-D-glucoyranosyl-(1→4)-α-D-glucopyranosyl-(1→4)-α-D-galactopyranosyl-(1→1)-(2-amino)ethanol], in experiment [1], the “interaction with the antiserum from human vaccinated with Pneumovax23” value is reported as “Robust interactions” and the “recognition by antiserum from human vaccinated with Pneumovax23 (007sp)” value is listed as “recognized”. The “recognition by mAb 1H8 (surface plasmon resonance)” value with mAb 1H8 [2] was “specifically recognizes”.

Consider `NCCO[C@H]1OC(CO)[C@H](O[C@H]2OC(CO)[C@@H](O[C@@H]3OC(CO)[C@@H](O[C@@H]4OC(C(=O)O)[C@@H](O[C@H]5OC(CO)[C@H](O)[C@H](O)C5O)[C@H](O)C4O)[C@H](O)C3O)[C@H](O)C2O)[C@H](O)C1O` (stereo partly drawn) [saccharide 55, α-D-galactopyranosyl-(1→4)-β-D-glucopyranosyluronate-(1→4)-β-D-glucoyranosyl-α-D-glucopyranosyl-(1→4)-α-D-galactopyranosyl-(1→1)-(2-amino)ethanol], for which, in the experiment on mAb 1H8 [3], the “binding of mAb 1H8 after inhibition with native SP8 polysaccharide” value is reported as “abrogated” and the “recognition by mAb 1H8” value is recorded as “recognized with similar intensities”. Besides, in the experiment with mAb 1F1, the “binding of mAb 1F1 after inhibition with native SP8 polysaccharide” value is on record as “abrogated” and the “recognition by mAb 1F1” value was “recognized with similar intensities”.

Regarding `NCCO[C@H]1OC(CO)[C@H](O[C@H]2OC(CO)[C@@H](O[C@@H]3OC(CO)[C@@H](O[C@@H]4OC(C(=O)O)[C@@H](O[C@H]5OC(CO)[C@H](O[C@H]6OC(CO)[C@@H](O)[C@H](O)C6O)[C@H](O)C5O)[C@H](O)C4O)[C@H](O)C3O)[C@H](O)C2O)[C@H](O)C1O` (stereo partly drawn) [saccharide 57, α-D-glucopyranosyl-(1→4)-α-D-galactopyranosyl-(1→4)-β-D-glucopyranosyluronate-(1→4)-β-D-glucoyranosyl-(1→4)-α-D-glucopyranosyl-(1→4)-α-D-galactopyranosyl-(1→1)-(2-amino)ethanol], in the experiment with mAb 1H8 [3], the “binding of mAb 1H8 after inhibition with native SP8 polysaccharide” value is “abrogated” and the “recognition by mAb 1H8” value is on record as “recognized with similar intensities”. Further, in the experiment on mAb 1F1, the “binding of mAb 1F1 after inhibition with native SP8 polysaccharide” value is given as “abrogated” and the “recognition by mAb 1F1” value was “recognized with similar intensities”.

For `NCCO[C@H]1OC(CO)[C@H](O[C@H]2OC(CO)[C@@H](O[C@@H]3OC(CO)[C@@H](O[C@@H]4OC(CO)[C@@H](O)[C@H](O)C4O)[C@H](O)C3O)[C@H](O)C2O)[C@H](O)C1O` (stereo partly drawn) [saccharide 60, β-D-Glucopyranosyl-(1→4)β-D-glucoyranosyl-(1→4)-α-D-glucopyranosyl-(1→4)-α-D-galactopyranosyl-(1→1)-(2-amino)ethanol], the “recognition by mAb 1H8” value with mAb 1H8 [3] is listed as “recognized with similar intensities”. Besides, in the experiment with mAb 1F1, the “recognition by mAb 1F1” value is reported as “recognized with similar intensities”.

`NCCO[C@H]1OC(CO)[C@H](O[C@H]2OC(CO)[C@@H](O[C@@H]3OC(CO)[C@@H](O)[C@H](O)C3O)[C@H](O)C2O)[C@H](O)C1O` (stereo partly drawn) [saccharide 62, β-D-Glucoyranosyl-(1→4)-α-D-glucopyranosyl-(1→4)-α-D-galactopyranosyl-(1→1)-(2-amino)ethanol]: in the experiment with mAb 1H8 [3], the “recognition by mAb 1H8” value was “recognized with similar intensities”. Also, the “recognition by mAb 1F1” value in the experiment on mAb 1F1 was “recognized with similar intensities”.

(Values after patent US10220083B2 (priority 2014, dated 2019).)
